Reference: PubChem BioAssay (NCI)
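Compound exposure: 48 hours, 5 concentrations, 96-well plates. Here, GI50 denotes the concentration required for 50% inhibition of growth. TGI: concentration producing complete growth inhibition.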

What was measured:
Assay in all cases: growth of human tumour cells (NCI), 48 h
OVCAR-5 ovarian = system: OVCAR-5 ovarian
COLO 205 colon = system: COLO 205 colon
HS 578T breast = system: HS 578T breast
TK-10 renal = system: TK-10 renal
SW-620 colon = system: SW-620 colon
CAKI-1 renal = system: CAKI-1 renal
A549 NSCLC = system: A549 NSCLC
MALME-3M melanoma = system: MALME-3M melanoma
MDA-MB-231 breast = system: MDA-MB-231 breast
PC-3 prostate = system: PC-3 prostate
SF-295 CNS = system: SF-295 CNS
SK-MEL-2 melanoma = system: SK-MEL-2 melanoma
SN12C renal = system: SN12C renal
BT-549 breast = system: BT-549 breast
HCT-116 colon = system: HCT-116 colon
OVCAR-4 ovarian = system: OVCAR-4 ovarian
UACC-257 melanoma = system: UACC-257 melanoma
MDA-N = system: MDA-N
M14 melanoma = system: M14 melanoma
HOP-62 NSCLC = system: HOP-62 NSCLC
MDA-MB-435 = system: MDA-MB-435
ACHN renal = system: ACHN renal
HCC-2998 colon = system: HCC-2998 colon
UACC-62 melanoma = system: UACC-62 melanoma
A498 renal = system: A498 renal
T-47D breast = system: T-47D breast
EKVX NSCLC = system: EKVX NSCLC
SNB-75 CNS = system: SNB-75 CNS
MOLT-4 leukemia = system: MOLT-4 leukemia
U251 CNS = system: U251 CNS
NCI-H23 lung = system: NCI-H23 lung
SNB-19 CNS = system: SNB-19 CNS
OVCAR-3 ovarian = system: OVCAR-3 ovarian
RPMI-8226 leukemia = system: RPMI-8226 leukemia
OVCAR-8 ovarian = system: OVCAR-8 ovarian
HT29 colon = system: HT29 colon
NCI-H226 lung = system: NCI-H226 lung
SF-268 CNS = system: SF-268 CNS
HOP-92 NSCLC = system: HOP-92 NSCLC
NCI-H522 lung = system: NCI-H522 lung
IGROV1 ovarian = system: IGROV1 ovarian
SK-OV-3 ovarian = system: SK-OV-3 ovarian
MCF7 breast = system: MCF7 breast
SK-MEL-5 melanoma = system: SK-MEL-5 melanoma
SF-539 CNS = system: SF-539 CNS
UO-31 renal = system: UO-31 renal
K-562 leukemia = system: K-562 leukemia
HCT-15 colon = system: HCT-15 colon
NCI-H460 lung = system: NCI-H460 lung
SK-MEL-28 melanoma = system: SK-MEL-28 melanoma
HL-60(TB) leukemia = system: HL-60(TB) leukemia
786-0 renal = system: 786-0 renal
KM12 colon = system: KM12 colon
LOX IMVI melanoma = system: LOX IMVI melanoma
DU-145 prostate = system: DU-145 prostate
NCI/ADR-RES ovarian = system: NCI/ADR-RES ovarian
SR leukemia = system: SR leukemia
CCRF-CEM leukemia = system: CCRF-CEM leukemia
RXF 393 renal = system: RXF 393 renal

**Q.** `CC(=O)OC1CC(OC2C(O)CC(OC3C(O)CC(OC4CCC5(C)C(CCC6C5CC(O)C5(C)C(C7=CC(=O)OC7)CCC65O)C4)OC3C)OC2C)OC(C)C1OC1OC(CO)C(O)C(O)C1O` (centres undefined) was tested. Which TGI (OVCAR-5 ovarian) did it give?
**A.** 222 nM

**Q.** And the TGI (COLO 205 colon)?
**A.** 394 nM

**Q.** What about the TGI (HS 578T breast) of the same compound?
**A.** 525 nM

**Q.** What about the TGI (TK-10 renal) of the same compound?
**A.** 235 nM

**Q.** What about the TGI (SW-620 colon) of the same compound?
**A.** 252 nM

**Q.** And the TGI (CAKI-1 renal)?
**A.** 90.4 nM

**Q.** What about the TGI (A549 NSCLC) of the same compound?
**A.** 39.9 nM

**Q.** What about the TGI (MALME-3M melanoma) of the same compound?
**A.** 249 nM

**Q.** What about the TGI (MDA-MB-231 breast) of the same compound?
**A.** 2410 nM

**Q.** What about the GI50 (PC-3 prostate) of the same compound?
**A.** 52.2 nM

**Q.** And the TGI (PC-3 prostate)?
**A.** 206 nM

**Q.** And the TGI (SF-295 CNS)?
**A.** 179 nM

**Q.** What about the TGI (SK-MEL-2 melanoma) of the same compound?
**A.** 488 nM

**Q.** And the GI50 (SN12C renal)?
**A.** 19.4 nM

**Q.** What about the TGI (SN12C renal) of the same compound?
**A.** 112 nM

**Q.** What about the TGI (BT-549 breast) of the same compound?
**A.** 167 nM

**Q.** What about the TGI (HCT-116 colon) of the same compound?
**A.** 139 nM

**Q.** And the TGI (OVCAR-4 ovarian)?
**A.** 207 nM

**Q.** And the TGI (UACC-257 melanoma)?
**A.** 767 nM

**Q.** What about the TGI (MDA-N) of the same compound?
**A.** 526 nM

**Q.** And the TGI (M14 melanoma)?
**A.** 343 nM

**Q.** And the TGI (HOP-62 NSCLC)?
**A.** 95.6 nM

**Q.** What about the TGI (MDA-MB-435) of the same compound?
**A.** 610 nM

**Q.** What about the TGI (ACHN renal) of the same compound?
**A.** 146 nM

**Q.** What about the TGI (HCC-2998 colon) of the same compound?
**A.** 441 nM

**Q.** And the TGI (UACC-62 melanoma)?
**A.** 404 nM

**Q.** What about the TGI (A498 renal) of the same compound?
**A.** 413 nM

**Q.** And the TGI (T-47D breast)?
**A.** 633 nM

**Q.** And the TGI (EKVX NSCLC)?
**A.** 98.1 nM

**Q.** What about the TGI (SNB-75 CNS) of the same compound?
**A.** 846 nM

**Q.** What about the TGI (MOLT-4 leukemia) of the same compound?
**A.** > 100000 nM

**Q.** And the TGI (U251 CNS)?
**A.** 207 nM

**Q.** What about the TGI (NCI-H23 lung) of the same compound?
**A.** 74.4 nM

**Q.** And the TGI (SNB-19 CNS)?
**A.** 957 nM

**Q.** And the TGI (OVCAR-3 ovarian)?
**A.** 150 nM

**Q.** What about the TGI (RPMI-8226 leukemia) of the same compound?
**A.** 25700 nM

**Q.** And the TGI (OVCAR-8 ovarian)?
**A.** 204 nM

**Q.** And the TGI (HT29 colon)?
**A.** 252 nM

**Q.** What about the TGI (NCI-H226 lung) of the same compound?
**A.** 606 nM

**Q.** What about the TGI (SF-268 CNS) of the same compound?
**A.** 185 nM

**Q.** And the TGI (HOP-92 NSCLC)?
**A.** 517 nM

**Q.** What about the TGI (NCI-H522 lung) of the same compound?
**A.** 114 nM

**Q.** What about the TGI (IGROV1 ovarian) of the same compound?
**A.** 1110 nM

**Q.** And the TGI (SK-OV-3 ovarian)?
**A.** 333 nM

**Q.** And the TGI (MCF7 breast)?
**A.** 431 nM

**Q.** What about the TGI (SK-MEL-5 melanoma) of the same compound?
**A.** 161 nM

**Q.** And the TGI (SF-539 CNS)?
**A.** 89.1 nM

**Q.** What about the TGI (UO-31 renal) of the same compound?
**A.** 179 nM

**Q.** What about the TGI (K-562 leukemia) of the same compound?
**A.** > 100000 nM

**Q.** What about the TGI (HCT-15 colon) of the same compound?
**A.** 160 nM

**Q.** And the TGI (NCI-H460 lung)?
**A.** 67.8 nM

**Q.** And the TGI (SK-MEL-28 melanoma)?
**A.** 979 nM

**Q.** And the TGI (HL-60(TB) leukemia)?
**A.** 220 nM

**Q.** And the TGI (786-0 renal)?
**A.** 107 nM

**Q.** And the TGI (KM12 colon)?
**A.** 519 nM

**Q.** What about the TGI (LOX IMVI melanoma) of the same compound?
**A.** 161 nM

**Q.** And the TGI (DU-145 prostate)?
**A.** 106 nM

**Q.** What about the TGI (NCI/ADR-RES ovarian) of the same compound?
**A.** 122 nM

**Q.** Which results are given for `COc1cc(C(=O)N(C(=S)OCc2ccccn2)c2ccccc2)cc(OC)c1OC`?
**A.** TGI (OVCAR-5 ovarian): > 100000 nM; TGI (COLO 205 colon): > 100000 nM; TGI (HS 578T breast): > 100000 nM; TGI (TK-10 renal): > 100000 nM; TGI (SR leukemia): 49000 nM; TGI (SW-620 colon): > 100000 nM; TGI (CAKI-1 renal): > 100000 nM; TGI (MALME-3M melanoma): 62000 nM; TGI (CCRF-CEM leukemia): > 100000 nM; TGI (MDA-MB-231 breast): > 100000 nM; TGI (PC-3 prostate): > 100000 nM; TGI (SK-MEL-2 melanoma): > 100000 nM; TGI (SN12C renal): > 100000 nM; TGI (BT-549 breast): > 100000 nM; TGI (HCT-116 colon): > 100000 nM; TGI (RXF 393 renal): > 100000 nM; TGI (UACC-257 melanoma): > 100000 nM; TGI (MDA-N): > 100000 nM; TGI (M14 melanoma): > 100000 nM; TGI (MDA-MB-435): > 100000 nM; TGI (ACHN renal): > 100000 nM; TGI (UACC-62 melanoma): > 100000 nM; TGI (A498 renal): > 100000 nM; TGI (T-47D breast): > 100000 nM; TGI (EKVX NSCLC): 79900 nM; TGI (MOLT-4 leukemia): > 100000 nM; TGI (U251 CNS): > 100000 nM; TGI (NCI-H23 lung): > 100000 nM; TGI (SNB-19 CNS): > 100000 nM; TGI (OVCAR-3 ovarian): > 100000 nM; TGI (RPMI-8226 leukemia): 99800 nM; TGI (OVCAR-8 ovarian): > 100000 nM; TGI (HT29 colon): > 100000 nM; TGI (NCI-H226 lung): > 100000 nM; TGI (SF-268 CNS): > 100000 nM; TGI (IGROV1 ovarian): 79600 nM; TGI (SK-OV-3 ovarian): > 100000 nM; TGI (MCF7 breast): > 100000 nM; TGI (SK-MEL-5 melanoma): > 100000 nM; TGI (SF-539 CNS): 81000 nM; TGI (UO-31 renal): 86500 nM; TGI (K-562 leukemia): > 100000 nM; TGI (HCT-15 colon): > 100000 nM; TGI (NCI-H460 lung): > 100000 nM; TGI (SK-MEL-28 melanoma): > 100000 nM; TGI (HL-60(TB) leukemia): > 100000 nM; TGI (786-0 renal): > 100000 nM; TGI (KM12 colon): > 100000 nM; TGI (LOX IMVI melanoma): > 100000 nM; TGI (DU-145 prostate): > 100000 nM; TGI (NCI/ADR-RES ovarian): > 100000 nM
